Experimental data as given in patent US20250243180A1, “TARGETED PROTEIN DEGRADATION” (Monte Rosa Therapeutics AG, priority 2023, published 2025).

Columns and labels:
NEK7 [1] = experiment: NEK7 level in PBMC of NHP after oral dosing; format: in vivo, cynomolgus monkeys; conditions: oral 5 mg/kg for 5 days
Method: Non-naïve male and female non-human primate (NHP) cynomolgus monkeys were orally administered with 5 consecutive daily doses of Compound 14 at 5 mg/kg, n=2 per dose group, 1 male and 1 female. Compound formulation was prepared on the day of administration in 0.5% methyl cellulose (4000 cps) in water and animals were fasted overnight. Plasma collected post dose were analyzed using a non GLP LC/MS/MS bioanalytical method to evaluate the compound concentration. Whole blood collected post dose were processed to PBMC and were analyzed using western blot method. Plasma pharmacokinetics and PMBC pharmacodynamics were assessed longitudinally throughout dosing and following dosing cessation.
In Table 8 compound 14 induces NEK7 degradation in vivo. NEK7 protein levels were assessed in PBMC isolated from NHP after oral administration for 5 consecutive days of Compound 14 at 5 mg/kg, n=2 per dose group. NEK7 levels were normalized to β-actin, as determined by JESS, at the indicated time points. NEK7 level at pre dose was normalized to 100%. Days 10 and 15 correspond to recovery period, 5 or 10 days after drug administration, respectively.

NEK7 [2] = experiment: NEK7 degradation in spleen and PBMC in rabbit gout model (JESS); format: in vivo; conditions: rabbits, 10 mg/kg QD×7, harvested 2 h after the final dose
Method: MSU crystals were prepared by dissolving uric acid (Aladdin, cat #U105582) in boiling water (1 g in 200 mL with 6 mL of 1 N NaOH). PH value was adjusted to 7.2 by HCl. The solution was stirred and cooled to room temperature and stored at 4° C. overnight. The precipitate was filtered with filter paper and dried under low heat to obtain MSU crystals. New Zealand White rabbits received an intra-articular injection of 1 mL of MSU crystals (50 mg/mL) into both knees (MSU group) or PBS (as vehicle, control group). n=10 for MSU groups; n=6 for PBS group. […]
On Day 7, tissue was harvested 2 hours post final dose. […] Lysates were prepared in M-PER lysis buffer and protein concentration was measured using Pierce rapid gold BCA protein Assay Kit (Thermo Fisher) according to manufacturer's protocol. […]
(a) To determine NEK7 degradation, spleens and peripheral blood mononuclear cells (PBMC) were analyzed by JESS for NEK7 and normalized to α-Tubulin from five representative animals. (b) The degree of joint swelling was determined by caliper measurements at the indicated time points. (c) Rabbit bone tissue sections were stained and quantified for anti-CD31 immunohistochemistry. Results expressed as mean±SEM. […]

[3] = test system: New Zealand White rabbits, MSU crystal gout model; experiment: In vivo rabbit gout model (intra-articular MSU): joint swelling and CD31 staining; conditions: daily prophylactic treatment
Method: MSU crystals were prepared by dissolving uric acid (Aladdin, cat #U105582) in boiling water (1 g in 200 mL with 6 mL of 1 N NaOH). PH value was adjusted to 7.2 by HCl. The solution was stirred and cooled to room temperature and stored at 4° C. overnight. The precipitate was filtered with filter paper and dried under low heat to obtain MSU crystals. New Zealand White rabbits received an intra-articular injection of 1 mL of MSU crystals (50 mg/mL) into both knees (MSU group) or PBS (as vehicle, control group). n=10 for MSU groups; n=6 for PBS group.
For immunohistochemistry, bone sections were stained with anti-CD31 (Abcam #ab9498) diluted at 1:500. The nuclei were stained with hematoxylin. Slides were scanned using LEICA Aperio GT450 at 400× magnification. The number of positive blood vessels were counted blindly.
(a) To determine NEK7 degradation, spleens and peripheral blood mononuclear cells (PBMC) were analyzed by JESS for NEK7 and normalized to α-Tubulin from five representative animals. (b) The degree of joint swelling was determined by caliper measurements at the indicated time points. (c) Rabbit bone tissue sections were stained and quantified for anti-CD31 immunohistochemistry. Results expressed as mean±SEM. Statistical analysis was performed using two-way ANOVA. The difference was considered significant when p<0.05.

Row | Compound | Average percent NEK7/β-actin in PBMC, relative to predose (NEK7 [1]; Day 1, 6 h) | Average percent NEK7/β-actin in PBMC, relative to predose (NEK7 [1]; Day 1, 24 h) | Average percent NEK7/β-actin in PBMC, relative to predose (NEK7 [1]; Day 5, 6 h) | Average percent NEK7/β-actin in PBMC, relative to predose (NEK7 [1]; Day 5, 24 h) | Average percent NEK7/β-actin in PBMC, relative to predose (NEK7 [1]; Day 10, 24 h (recovery)) | Average percent NEK7/β-actin in PBMC, relative to predose (NEK7 [1]; Day 15, 24 h (recovery)) | degradation of NEK7 in spleen and PBMCs (NEK7 [2]) | CD31 staining in bone tissue [3] | joint swelling induced by intra-articular MSU injection [3]
1 | Cc1cnc(C(C)(C)C(=O)NCc2cc(Cl)c(C3CCC(=O)NC3=O)c(Cl)c2)nc1 (stereo not drawn) [Compound 14, N-(3,5-dichloro-4-(2,6-dioxopiperidin-3-yl)benzyl)-2-methyl-2-(5-methylpyrimidin-2-yl)-propanamide] | 56% | 44% | 27% | 15% | 45% | 141% | – | – | –
2 | CC(C)(C(=O)NCc1cc(Cl)c(C2CCC(=O)NC2=O)c(Cl)c1)c1ncc(C#N)cn1 (stereo not drawn) [Compound 16, 2-(5-cyanopyrimidin-2-yl)-N-(3,5-dichloro-4-(2,6-dioxopiperidin-3-yl)benzyl)-2-methyl-propanamide] | – | – | – | – | – | – | greater than 50% | improvement | improvement
